Consider seven compounds from patent US20260355325A1, “DIMER COMPOUNDS” (KESMALEA THERAPEUTICS LIMITED, priority 2023, published 2026).

The test concerns the target T1, BTK (Homo sapiens, UniProt Q06187).
T1 construct: immunofluorescence degradation readout, 48 h
Kind of test: BTK IFA Assay (BTK degradation in OCI-Ly10 cells). It counts as cell-based. As to conditions: BTK degradation in OCI-Ly10 cells at 48-hour timepoint. As for the experimental part:
The purpose of the BTK Assays were to assess the binding affinity of the dimer to BTK and subsequent protein degradation.
OCI-Ly10 cells were obtained from CoBioer Biosciences Co. Ltd, Shanghai, China, and maintained in IMDM (Invitrogen™, Waltham, MA) supplemented with 20% FBS (AusGeneX, Molendinar, Australia) and 1%, penicillin/streptomycin (Invitrogen™, Waltham, MA) in a humidified incubator at 5% CO2, 37° C.
Compounds were dissolved in DMSO (10 mM), serially diluted from 10 mM to 1.5 nM, and pre-incubated for 2 hours. Exponentially growing cells were seeded at 8×10^3 cells per well of 384 well plate (Corning, New York #356663). Cells were treated with compound for 48 hours. Following treatment, cells were fixed with 4% PFA (SolarBio Lifescience, Beijing, China) for 20 minutes, permeabilised in 100% ice-cold methanol (Merck, Darmstadt, Germany) for 10 minutes, and blocked with blocking buffer (LI-COR Biosciences Lincoln, NE) for 90 minutes.
Cells were incubated with primary BTK antibody (CST #8547 Danvers, MA) at 1:1000 dilution overnight in blocking buffer (LI-COR, Lincoln, NE) at 4° C. Cells were washed in DPBS (Thermo Fisher Scientific, Waltham, MA) and incubated with secondary antibody AlexaFluor 488 goat anti rabbit (Invitrogen™ #A-11008 Waltham, MA) 1:1000 dilution, with Hoechst stain (Invitrogen™ Waltham, MA) 1:5000 dilution in blocking buffer (LI-COR Biosciences, Lincoln, NE) for 90 minutes. After final DPBS wash, 200 ul of DPBS was added to the cells, and signal read on Operetta (Revvity, Waltham, MA). Each data point was performed in duplicate for every experiment. A DC50 value was calculated from linear regression analysis of the plots.

SMILES strings stand for the structures.

T1 sequence (Q06187 whole entry): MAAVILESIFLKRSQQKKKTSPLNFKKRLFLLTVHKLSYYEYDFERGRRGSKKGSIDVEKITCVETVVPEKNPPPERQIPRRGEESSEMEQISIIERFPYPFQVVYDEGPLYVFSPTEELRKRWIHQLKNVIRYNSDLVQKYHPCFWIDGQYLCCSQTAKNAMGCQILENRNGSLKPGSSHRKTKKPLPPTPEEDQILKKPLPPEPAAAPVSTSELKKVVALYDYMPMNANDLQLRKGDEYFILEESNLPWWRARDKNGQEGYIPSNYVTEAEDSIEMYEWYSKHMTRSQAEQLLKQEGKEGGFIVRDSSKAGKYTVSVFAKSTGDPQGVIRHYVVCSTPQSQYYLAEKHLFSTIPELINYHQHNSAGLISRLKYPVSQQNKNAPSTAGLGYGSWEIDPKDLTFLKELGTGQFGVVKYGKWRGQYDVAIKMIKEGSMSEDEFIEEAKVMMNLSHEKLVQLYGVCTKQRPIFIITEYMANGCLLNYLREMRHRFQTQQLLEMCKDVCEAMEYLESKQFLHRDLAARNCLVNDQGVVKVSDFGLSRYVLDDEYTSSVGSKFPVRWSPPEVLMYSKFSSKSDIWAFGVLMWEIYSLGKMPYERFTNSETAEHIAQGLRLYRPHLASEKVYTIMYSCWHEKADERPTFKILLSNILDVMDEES

In the case of `Cc1cc(C(=O)N(C)CCCOc2ccc3c(c2)n(C)c(=O)n3C2CCC(=O)NC2=O)ccc1B1O[C@H]2C[C@H]3C[C@H](C3(C)C)[C@@]2(CCOCCN2CCC(n3nc(-c4ccc(Oc5ccccc5)cc4)c4c(N)ncnc43)CC2)O1` (stereo partly drawn) [Example 14, 4-((3aR,4R,6R,7aS)-3a-(2-(2-(4-(4-amino-3-(4-phenoxyphenyl)-1H-pyrazolo[3,4-d]pyrimidin-1-yl)piperidin-1-yl)ethoxy)ethyl)-5,5-dimethylhexahydro-4,6-methanobenzo[d][1,3,2]dioxaborol-2-yl)-N-(3-((1-(2,6-dioxopiperidin-3-yl)-3-methyl-2-oxo-2,3-dihydro-1H-benzo[d]imidazol-5-yl)oxy)propyl)-N,3-dimethylbenzamide], the half-maximal degradation concentration (DC50) (in general, the concentration giving 50% degradation) is 100 to 500 nM.
In the case of `Cc1ccc(C(=O)N(C)CCCOc2cccc3c2CN(C2CCC(=O)NC2=O)C3=O)cc1B1O[C@H]2C[C@H]3C[C@H](C3(C)C)[C@@]2(CCOCC(=O)N2CCC(n3nc(-c4ccc(Oc5ccccc5)cc4)c4c(N)ncnc43)CC2)O1` (mixture of isomers) [Example 19, 3-((3aR,4R,6R,7aS)-3a-(2-(2-(4-(4-amino-3-(4-phenoxyphenyl)-1H-pyrazolo[3,4-d]pyrimidin-1-yl)piperidin-1-yl)-2-oxoethoxy)ethyl)-5,5-dimethylhexahydro-4,6-methanobenzo[d][1,3,2]dioxaborol-2-yl)-N-(3-((2-(2,6-dioxopiperidin-3-yl)-1-oxoisoindolin-4-yl)oxy)propyl)-N,4-dimethylbenzamide] it was 500 to 1000 nM; in that of `Cc1cc(C(=O)NCCC#Cc2cccc3c2CN(C2CCC(=O)NC2=O)C3=O)ccc1B1O[C@H]2C[C@H]3C[C@H](C3(C)C)[C@@]2(CCOCCN2CCC(n3nc(-c4ccc(Oc5ccccc5)cc4)c4c(N)ncnc43)CC2)O1` (mixture of isomers) [Example 15, 4-((3aR,4R,6R,7aS)-3a-(2-(2-(4-(4-amino-3-(4-phenoxyphenyl)-1H-pyrazolo[3,4-d]pyrimidin-1-yl)piperidin-1-yl)ethoxy)ethyl)-5,5-dimethylhexahydro-4,6-methanobenzo[d][1,3,2]dioxaborol-2-yl)-N-(4-(2-(2,6-dioxopiperidin-3-yl)-1-oxoisoindolin-4-yl)but-3-yn-1-yl)-3-methylbenzamide], 100 to 500 nM.
On to `Cc1cc(C(=O)N(C)CCCOc2cccc3c2CN(C2CCC(=O)NC2=O)C3=O)ccc1B1O[C@H]2C[C@H]3C[C@H](C3(C)C)[C@@]2(CCOCC(=O)N2CCC(n3nc(-c4ccc(Oc5ccccc5)cc4)c4c(N)ncnc43)CC2)O1` (stereo partly drawn) [Example 18, 4-((3aR,4R,6R,7aS)-3a-(2-(2-(4-(4-amino-3-(4-phenoxyphenyl)-1H-pyrazolo[3,4-d]pyrimidin-1-yl)piperidin-1-yl)-2-oxoethoxy)ethyl)-5,5-dimethylhexahydro-4,6-methanobenzo[d][1,3,2]dioxaborol-2-yl)-N-(3-((2-(2,6-dioxopiperidin-3-yl)-1-oxoisoindolin-4-yl)oxy)propyl)-N,3-dimethylbenzamide], for which the half-maximal degradation concentration (DC50) fell in the range of 500 to 1000 nM.
The compound `Cc1cc(C(=O)NCCC#Cc2cccc3c2CN(C2CCC(=O)NC2=O)C3=O)ccc1B1O[C@H]2C[C@H]3C[C@H](C3(C)C)[C@@]2(CCOCC(=O)N2CCC(n3nc(-c4ccc(Oc5ccccc5)cc4)c4c(N)ncnc43)CC2)O1` (mixture of isomers) [Example 17, 4-((3aR,4R,6R,7aS)-3a-(2-(2-(4-(4-amino-3-(4-phenoxyphenyl)-1H-pyrazolo[3,4-d]pyrimidin-1-yl)piperidin-1-yl)-2-oxoethoxy)ethyl)-5,5-dimethylhexahydro-4,6-methanobenzo[d][1,3,2]dioxaborol-2-yl)-N-(4-(2-(2,6-dioxopiperidin-3-yl)-1-oxoisoindolin-4-yl)but-3-yn-1-yl)-3-methylbenzamide] displayed a DC50 of 100 to 500 nM.
The compound `Cc1cc(C(=O)N(C)CCCOc2ccc3c(c2)n(C)c(=O)n3C2CCC(=O)NC2=O)ccc1B1O[C@H]2C[C@H]3C[C@H](C3(C)C)[C@@]2(CCOCC(=O)N2CCC(n3nc(-c4ccc(Oc5ccccc5)cc4)c4c(N)ncnc43)CC2)O1` (mixture of isomers) [Example 16, 4-((3aR,4R,6R,7aS)-3a-(2-(2-(4-(4-amino-3-(4-phenoxyphenyl)-1H-pyrazolo[3,4-d]pyrimidin-1-yl)piperidin-1-yl)-2-oxoethoxy)ethyl)-5,5-dimethylhexahydro-4,6-methanobenzo[d][1,3,2]dioxaborol-2-yl)-N-(3-((1-(2,6-dioxopiperidin-3-yl)-3-methyl-2-oxo-2,3-dihydro-1H-benzo[d]imidazol-5-yl)oxy)propyl)-N,3-dimethylbenzamide] came in with a DC50 of 500 to 1000 nM.
With `Cc1cc(C(=O)N(C)CCOc2cccc3c2CN(C2CCC(=O)NC2=O)C3=O)ccc1B1O[C@H]2C[C@H]3C[C@H](C3(C)C)[C@@]2(CCOCC(=O)N2CCC(n3nc(-c4ccc(Oc5ccccc5)cc4)c4c(N)ncnc43)CC2)O1` (mixture of isomers) [Example 20, 4-((3aR,4R,6R,7aS)-3a-(2-(2-(4-(4-amino-3-(4-phenoxyphenyl)-1H-pyrazolo[3,4-d]pyrimidin-1-yl)piperidin-1-yl)-2-oxoethoxy)ethyl)-5,5-dimethylhexahydro-4,6-methanobenzo[d][1,3,2]dioxaborol-2-yl)-N-(2-((2-(2,6-dioxopiperidin-3-yl)-1-oxoisoindolin-4-yl)oxy)ethyl)-N,3-dimethylbenzamide], the 50% degradation concentration (DC50) fell in the range of 1000 to 10000 nM.
